Assay [1] concerns colon CSCs. Put plainly: kinase inhibitor library screening, ATP-based viability assay. The format is cell-based, human. On the procedure:
A flowchart showing the steps of the screenings performed on colon CSCs, is depicted in FIG. 5. Before treatment with inhibitors, colon CSCs undergo trypsin/EDTA dissociation in order to be consistently plated into 96-well microtiter plates. After 48 h cells recover from dissociation and form spheroids again. Inhibitors are subsequently added to the cells as single agents while ATP-based-viability assay are performed after another 48 h.
Viability controls are cells treated with DMSO whereas staurosporin-treated cells are positive controls of death.
(§1) Cells were incubated at 37° C. for a variable time, depending on the size and on the sensitivity of each colon CSC line, until single cell suspension was achieved. Cells were then washed once in fresh medium and plated into 96-well microtiter plates in 80 μL volume. The number of cells plated ranged from 2000 to 5000 per well. Drugs were added after 48 h by dispensing each well with 20 μL of medium containing 5× concentrated compounds. We purchased the kinase inhibitor library from Enzo Life Sciences International, Inc (formerly BIOMOL International, L.P., PA, USA) and used each single inhibitor at a final […] concentration. As a control DMSO was added to cells at a final concentration of 0.1% (v/v).
Measure of cell viability was performed using CelltiterGlo® luminescent assay (Promega Corporation, Madison, Wis., USA) and luminescence was recorded on Beckman Coulter DTX880 multimode reader (Beckman Coulter Inc., Fullerton, Calif., USA) with an integration time of 100 ms.
Statistical analysis and IC50 calculations were performed with the aid of Microsoft Excel (Microsoft Corporation, www.microsoft.com) and GraphPad Prism version 4.00 for Windows, (GraphPad Software, San Diego, Calif., www.graphpad.com) while hierarchical clustering was performed with TMev v4.3.01 [10]. Normalized viability represents the signal intensity of each replicate divided by the average of single plate DMSO controls (in percent). Dunnett's post-test was performed on at least three independent experiments for each colon CSC line to calculate statistical significance versus DMSO controls. P values were subsequently clustered by using Euclidean distance as metric and complete linkage as a linkage method.

For assay [2], the target named is casein kinase I and PKA, insulin receptor kinase fragment. Conditions: range over casein kinase I; cited from earlier work.
Assay [3] deals with CTSC#85 (TRAIL-resistant colon CSC line). Put plainly: drug combination experiment. The following applies: 24 h, TRAIL IC50/17-AAG IC50. Format: cell-based, human. The method, then:
Normalized viability at 24 h is plotted against drug combinations. […] Recombinant human Killer TRAIL was purchased from Alexis (San Diego, Calif., USA) while Geldanamycin, 17-AAG and 17-DMAG were purchased from Calbiochem (Nottingham, UK). All agents were diluted into fresh medium at the specified concentrations. Measure of cell viability was performed using CelltiterGlo® luminescent assay (Promega Corporation, Madison, Wis., USA) and luminescence was recorded on Beckman Coulter DTX880 multimode reader (Beckman Coulter Inc., Fullerton, Calif., USA) with an integration time of 100 ms.

The test system of assay [4] is colon cancer cell lines. Conditions: commercial (non-stem) cell lines, colon and lung; cited from earlier work.
The test system of assay [5] is CTSC#85. The experiment in a line: dose-response analysis, viability (CelltiterGlo). Format: cell-based, human. Conditions: escalating doses. A general note: Cellular ATP, detected with luciferase, serves as a proxy for viable cell number.
Assay [6] concerns the target platelet-derived growth factor receptor tyrosine kinase (Homo sapiens, UniProt P09619). The following applies: cited from earlier work.
Assay [7] concerns the target c-kit (Homo sapiens, UniProt P10721). Conditions: at 5 μM; cited from earlier work.
Assay [8] has as its target human PDGF a-receptors (Homo sapiens, UniProt P16234). The following applies: cited from earlier work.
Assay [9] addresses human PDGF b-receptors (Homo sapiens, UniProt P09619). Conditions: cited from earlier work.
Assay [10] has as its system TNF-a-inducible phosphorylation of IkBa. Conditions: cited from earlier work.
Assay [11] deals with myosin light chain kinase. Conditions: cited from earlier work.
Assay [12] has as its target protein kinase G. Conditions: cited from earlier work.
Assay [13] addresses rat brain CaM kinase II. Conditions: cited from earlier work.
Assay [14] has as its target CaM kinase II. Conditions: cited from earlier work.
The subject of assay [15] is GSK-3 in primary adipocytes. Conditions: cited from earlier work.
For assay [16], the target named is protein kinase A (Homo sapiens, UniProt P17612). Conditions: cited from earlier work.
Assay [17] concerns the target T1, GSK-3b immunoprecipitates (Homo sapiens, UniProt P49841).
T1 construct: host or cells: immunoprecipitates
The following applies: cited from earlier work.

Assay [18] deals with protein kinase C (PKC). The following applies: cited from earlier work.
The target in assay [19] is PKCd (Homo sapiens, UniProt Q05655). Conditions: cited from earlier work.
In assay [20] the target is CaM kinase III (Homo sapiens, UniProt O00418). Conditions: cited from earlier work.
For assay [21], the system named is PKCe, PKCh, and PKCz. The following applies: reduced inhibitory activity; cited from earlier work.
Assay [22] deals with PKCa, PKCb, and PKCg isoforms. The following applies: cited from earlier work.
The target of assay [23] is SAPK2a/p38a (Homo sapiens, UniProt Q16539). Conditions: cited from earlier work.
The test system of assay [24] is many other protein kinases. The following applies: even at 50 μM; cited from earlier work.
In assay [25] the target is SAPK2b/p38b2 (Homo sapiens, UniProt Q15759). Conditions: cited from earlier work.
Assay [26] concerns the target c-Raf (Homo sapiens, UniProt P04049). Conditions: selectivity c-Raf over B-Raf; cited from earlier work.
Assay [27] deals with Cdk5 (Homo sapiens, UniProt Q00535). The following applies: cited from earlier work.
Assay [28] deals with colon CSCs. Put plainly: dose-response analysis on four colon CSCs. Conditions: single agent, escalating doses, four colon CSC lines. Format: cell-based, human. The method, then:
as §1, with “(v/v). Recombinant human Killer TRAIL was purchased from Alexis (San Diego, Calif., USA) while Geldanamycin, 17-AAG and 17-DMAG were purchased from Calbiochem (Nottingham, UK). All agents were diluted into fresh medium at the specified concentrations. Measure of cell viability was performed using CelltiterGlo® luminescent assay (Promega Corporation, Madison, Wis., USA) and luminescence was recorded on Beckman Coulter DTX880 multimode reader (Beckman Coulter Inc., Fullerton, Calif., USA) with an integration time of 100 ms.” for “(v/v).”

Setting [29] is: single agent, 5 μM, viability after 48 h, four colon CSC lines.

In general, IC50 refers to the concentration needed to halve the response being measured. One may read the Ki as the dissociation constant of the complex between target and ligand, obtained from inhibition or displacement.

Entries after “also recorded” stand apart in the source; their conditions may differ. Where two headings read alike, the source gives them in different places.

T1 sequence (P49841 whole entry): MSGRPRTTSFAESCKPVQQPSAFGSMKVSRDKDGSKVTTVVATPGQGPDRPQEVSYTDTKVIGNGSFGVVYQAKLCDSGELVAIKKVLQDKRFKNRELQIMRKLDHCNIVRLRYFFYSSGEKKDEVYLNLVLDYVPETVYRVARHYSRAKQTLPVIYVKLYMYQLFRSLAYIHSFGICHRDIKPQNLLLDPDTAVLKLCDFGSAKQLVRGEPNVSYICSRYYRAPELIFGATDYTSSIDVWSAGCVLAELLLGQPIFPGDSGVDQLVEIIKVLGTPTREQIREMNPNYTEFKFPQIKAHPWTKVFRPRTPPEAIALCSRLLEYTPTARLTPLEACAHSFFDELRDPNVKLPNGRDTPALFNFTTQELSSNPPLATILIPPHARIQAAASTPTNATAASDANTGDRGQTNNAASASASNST
Chain of c-kit (P10721 26-976): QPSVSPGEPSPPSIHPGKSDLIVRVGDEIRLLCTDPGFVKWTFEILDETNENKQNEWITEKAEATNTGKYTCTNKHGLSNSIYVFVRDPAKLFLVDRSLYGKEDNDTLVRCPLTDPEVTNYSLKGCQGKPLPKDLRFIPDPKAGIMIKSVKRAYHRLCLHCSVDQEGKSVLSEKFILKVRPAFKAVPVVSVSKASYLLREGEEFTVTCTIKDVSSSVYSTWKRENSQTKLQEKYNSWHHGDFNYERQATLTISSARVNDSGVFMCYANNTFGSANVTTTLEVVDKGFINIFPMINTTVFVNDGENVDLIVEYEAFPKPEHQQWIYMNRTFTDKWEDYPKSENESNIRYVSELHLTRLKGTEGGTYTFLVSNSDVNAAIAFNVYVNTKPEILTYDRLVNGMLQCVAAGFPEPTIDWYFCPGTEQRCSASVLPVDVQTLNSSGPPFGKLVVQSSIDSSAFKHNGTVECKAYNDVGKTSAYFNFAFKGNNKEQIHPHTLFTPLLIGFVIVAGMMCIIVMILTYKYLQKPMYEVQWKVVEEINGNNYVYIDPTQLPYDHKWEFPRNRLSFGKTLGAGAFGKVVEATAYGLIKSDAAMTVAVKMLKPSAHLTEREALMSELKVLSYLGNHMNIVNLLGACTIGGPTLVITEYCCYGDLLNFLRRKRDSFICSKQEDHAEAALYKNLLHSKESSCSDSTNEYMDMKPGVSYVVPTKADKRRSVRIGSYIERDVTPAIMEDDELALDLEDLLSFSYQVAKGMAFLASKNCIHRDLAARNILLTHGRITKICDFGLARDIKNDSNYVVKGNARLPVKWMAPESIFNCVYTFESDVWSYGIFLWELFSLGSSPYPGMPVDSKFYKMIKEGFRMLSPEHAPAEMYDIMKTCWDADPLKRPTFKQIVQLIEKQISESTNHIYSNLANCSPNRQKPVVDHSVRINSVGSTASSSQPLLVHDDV
Chain of human PDGF a-receptors (P16234 24-1089): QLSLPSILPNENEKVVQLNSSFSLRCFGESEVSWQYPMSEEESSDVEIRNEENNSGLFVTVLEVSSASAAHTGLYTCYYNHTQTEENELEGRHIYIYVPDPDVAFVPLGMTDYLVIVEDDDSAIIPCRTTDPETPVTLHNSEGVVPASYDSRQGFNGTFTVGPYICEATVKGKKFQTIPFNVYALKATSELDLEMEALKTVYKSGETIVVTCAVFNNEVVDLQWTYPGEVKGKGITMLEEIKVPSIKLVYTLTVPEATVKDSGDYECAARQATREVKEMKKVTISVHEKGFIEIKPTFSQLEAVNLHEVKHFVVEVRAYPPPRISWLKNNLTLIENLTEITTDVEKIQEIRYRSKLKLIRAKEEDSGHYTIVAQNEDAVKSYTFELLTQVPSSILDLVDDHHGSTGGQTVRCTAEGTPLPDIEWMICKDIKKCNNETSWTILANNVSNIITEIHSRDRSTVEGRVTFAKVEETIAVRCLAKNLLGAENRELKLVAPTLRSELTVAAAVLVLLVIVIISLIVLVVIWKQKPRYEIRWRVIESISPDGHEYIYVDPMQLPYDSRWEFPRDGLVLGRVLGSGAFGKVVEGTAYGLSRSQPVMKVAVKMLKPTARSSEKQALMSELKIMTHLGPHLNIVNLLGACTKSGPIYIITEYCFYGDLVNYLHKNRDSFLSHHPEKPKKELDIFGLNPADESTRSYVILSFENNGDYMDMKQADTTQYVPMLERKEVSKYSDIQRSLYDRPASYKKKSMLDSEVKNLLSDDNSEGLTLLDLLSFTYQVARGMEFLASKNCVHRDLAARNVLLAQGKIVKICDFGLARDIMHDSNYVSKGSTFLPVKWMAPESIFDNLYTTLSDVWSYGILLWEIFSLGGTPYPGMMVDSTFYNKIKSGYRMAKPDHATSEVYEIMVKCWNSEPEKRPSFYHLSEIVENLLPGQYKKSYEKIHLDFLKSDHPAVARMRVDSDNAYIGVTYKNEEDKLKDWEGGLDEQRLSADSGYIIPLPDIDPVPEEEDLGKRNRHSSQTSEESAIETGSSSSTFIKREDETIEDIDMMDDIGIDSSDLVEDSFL
Chain of SAPK2a/p38a (Q16539 whole entry): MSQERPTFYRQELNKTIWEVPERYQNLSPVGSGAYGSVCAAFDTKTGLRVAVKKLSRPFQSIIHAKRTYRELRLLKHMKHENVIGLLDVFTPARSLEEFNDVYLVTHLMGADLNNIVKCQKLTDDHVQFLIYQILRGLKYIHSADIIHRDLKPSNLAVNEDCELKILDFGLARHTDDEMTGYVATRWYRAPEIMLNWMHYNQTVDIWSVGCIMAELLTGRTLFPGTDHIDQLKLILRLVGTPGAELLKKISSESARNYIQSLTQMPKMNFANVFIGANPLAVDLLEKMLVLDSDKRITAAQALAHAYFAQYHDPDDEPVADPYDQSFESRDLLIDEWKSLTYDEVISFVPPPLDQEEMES
Chain of human PDGF b-receptors (P09619 33-1106): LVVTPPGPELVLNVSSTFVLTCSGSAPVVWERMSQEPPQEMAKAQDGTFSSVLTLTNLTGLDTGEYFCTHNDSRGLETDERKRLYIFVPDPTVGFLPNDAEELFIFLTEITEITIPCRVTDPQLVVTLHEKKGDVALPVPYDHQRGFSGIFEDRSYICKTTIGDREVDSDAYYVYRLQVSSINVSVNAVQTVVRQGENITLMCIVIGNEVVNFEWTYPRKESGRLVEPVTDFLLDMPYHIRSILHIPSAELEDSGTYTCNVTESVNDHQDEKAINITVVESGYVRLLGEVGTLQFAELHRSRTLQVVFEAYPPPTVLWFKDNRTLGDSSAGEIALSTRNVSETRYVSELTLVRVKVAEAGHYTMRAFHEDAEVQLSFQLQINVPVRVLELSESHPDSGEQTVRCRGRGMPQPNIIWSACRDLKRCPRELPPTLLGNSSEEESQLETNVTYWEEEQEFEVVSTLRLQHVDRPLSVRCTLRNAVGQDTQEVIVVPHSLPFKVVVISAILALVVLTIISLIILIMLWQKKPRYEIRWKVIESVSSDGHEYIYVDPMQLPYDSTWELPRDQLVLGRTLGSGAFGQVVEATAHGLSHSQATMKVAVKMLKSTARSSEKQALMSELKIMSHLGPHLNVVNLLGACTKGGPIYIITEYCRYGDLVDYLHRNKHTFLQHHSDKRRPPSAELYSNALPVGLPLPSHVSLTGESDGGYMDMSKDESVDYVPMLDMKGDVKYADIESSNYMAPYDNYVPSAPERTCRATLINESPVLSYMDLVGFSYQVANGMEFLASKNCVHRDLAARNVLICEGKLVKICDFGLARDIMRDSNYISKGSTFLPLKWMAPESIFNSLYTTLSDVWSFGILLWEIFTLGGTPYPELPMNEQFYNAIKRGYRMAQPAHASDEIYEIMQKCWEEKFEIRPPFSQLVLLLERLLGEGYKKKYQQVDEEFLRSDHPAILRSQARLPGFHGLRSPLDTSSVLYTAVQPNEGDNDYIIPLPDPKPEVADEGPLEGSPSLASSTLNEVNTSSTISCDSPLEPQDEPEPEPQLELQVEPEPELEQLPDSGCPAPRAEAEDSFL
Chain of platelet-derived growth factor receptor tyrosine kinase (P09619 33-1106): as above
Chain of PKCd (Q05655 whole entry, species assumed): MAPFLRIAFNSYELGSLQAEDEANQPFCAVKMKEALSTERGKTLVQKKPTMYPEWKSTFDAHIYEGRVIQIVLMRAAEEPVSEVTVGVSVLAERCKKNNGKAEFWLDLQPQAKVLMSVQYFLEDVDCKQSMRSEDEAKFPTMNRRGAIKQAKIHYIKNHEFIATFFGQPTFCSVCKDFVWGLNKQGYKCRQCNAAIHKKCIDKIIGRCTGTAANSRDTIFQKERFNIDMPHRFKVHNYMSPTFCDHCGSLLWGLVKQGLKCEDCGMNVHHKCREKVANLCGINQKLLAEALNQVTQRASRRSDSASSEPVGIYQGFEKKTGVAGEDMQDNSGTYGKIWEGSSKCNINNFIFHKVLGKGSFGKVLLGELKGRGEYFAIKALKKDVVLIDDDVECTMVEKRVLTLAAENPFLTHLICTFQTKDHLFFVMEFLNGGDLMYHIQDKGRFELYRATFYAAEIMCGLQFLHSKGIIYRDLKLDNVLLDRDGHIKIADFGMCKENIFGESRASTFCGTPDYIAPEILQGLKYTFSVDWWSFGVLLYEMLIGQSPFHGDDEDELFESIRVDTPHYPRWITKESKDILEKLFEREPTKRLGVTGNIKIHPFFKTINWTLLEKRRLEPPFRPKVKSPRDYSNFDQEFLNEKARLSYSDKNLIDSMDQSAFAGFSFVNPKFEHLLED
Chain of SAPK2b/p38b2 (Q15759 whole entry): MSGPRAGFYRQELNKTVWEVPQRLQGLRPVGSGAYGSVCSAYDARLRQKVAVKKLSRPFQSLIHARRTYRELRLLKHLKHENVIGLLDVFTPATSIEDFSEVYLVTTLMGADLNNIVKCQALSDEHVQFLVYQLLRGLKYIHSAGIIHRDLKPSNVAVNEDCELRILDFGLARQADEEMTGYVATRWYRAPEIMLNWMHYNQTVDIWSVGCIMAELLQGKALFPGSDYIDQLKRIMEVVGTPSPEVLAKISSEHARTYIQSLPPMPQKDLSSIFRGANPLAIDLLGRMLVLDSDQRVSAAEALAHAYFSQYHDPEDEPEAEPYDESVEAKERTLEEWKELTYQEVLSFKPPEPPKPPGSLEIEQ

Take `Nc1ncnc2c1c(I)cn2[C@@H]1O[C@H](CO)[C@@H](O)[C@H]1O` [5-Iodotubercidin]: the “effect on colon CSC proliferation / number versus DMSO controls” value in assay [1] (setting [29]) is “significantly lead to a reduction in colon CSC numbers”. Besides, the concentration for half-maximal inhibition (IC50) in [2] is 0.4 to 28 µM.
Turning to `C=CCNC1=C2C[C@@H](C)C[C@H](OC)[C@H](O)[C@@H](C)/C=C(\C)[C@H](OC(N)=O)[C@@H](OC)/C=C\C=C(/C)C(=O)NC(=CC1=O)C2=O` [17-AAG, 17-Allylamino-17-demethoxygeldanamycin], in assay [3], the “effect of combination with TRAIL on normalized viability” value is given as “synergistic effect; also recorded: rapidly (24 h) sensitized to TRAIL treatment”. For the same molecule, in [4], the “sensitization of tumor cell lines to TRAIL” value is “sensitizes colon cancer cell lines; also recorded: TRAIL resistance can be overcome”.
For `CO[C@H]1/C=C\C=C(/C)C(=O)NC2=CC(=O)C(NCCN(C)C)=C(C[C@@H](C)C[C@H](OC)[C@H](O)[C@@H](C)/C=C(\C)[C@@H]1OC(N)=O)C2=O` [17-DMAG, 17-dimethylaminoethylamino-17-demethoxy-geldanamycin], the “sensitivity of the TRAIL-resistant colon CSC line to single agent” value in assay [5] is on record as “sensitive”.
As for `CC(C)(C)c1cc(C=C(C#N)C#N)cc(C(C)(C)C)c1O` [AG 17], the half-maximal inhibitory concentration (IC50) in [6] was 0.5 µM. In addition, the “effect on colon CSC proliferation / number versus DMSO controls” value in [1] (setting [29]) is listed as “significantly lead to a reduction in colon CSC numbers”.
In the case of `COc1cc2ncc(-c3ccccc3)nc2cc1OC` [AG 1296], the inhibition entry in assay [7] is on record as “c-kit (80% inhibition at 5 μM)”. For the same molecule, the IC50 was 1 µM in assay [8] and 0.8 µM in assay [9].
With `Cc1ccc(S(=O)(=O)/C=C/C#N)cc1` [BAY 11-7082], the IC50 in [10] is 10 µM.
`O=S(=O)(c1cccc2cnccc12)N1CCCNCC1` [HA-1077]: the inhibition constant Ki in assay [11] is 36 µM; in assay [12], 1.6 µM. In addition, the “effect on colon CSC proliferation / number versus DMSO controls” value in assay [1] (setting [29]) is given as “lead to significant proliferation”.
For the molecule `CN([C@@H](Cc1ccc(OS(=O)(=O)c2cccc3cnccc23)cc1)C(=O)N1CCN(c2ccccc2)CC1)S(=O)(=O)c1cccc2cnccc12` [KN-62], the inhibitory constant (Ki) in assay [13] was 0.9 µM.
On to `COc1ccc(S(=O)(=O)N(CCO)c2ccccc2CN(C)C/C=C/c2ccc(Cl)cc2)cc1` [KN-93], for which the Ki in [14] is 0.37 µM.
For the molecule `Cn1cc(C2=C(c3cn(CCCSC(=N)N)c4ccccc34)C(=O)NC2=O)c2ccccc21` [Ro-31-8220], the 50% inhibitory concentration (IC50) in assay [15] is 0.0068 µM; in assay [14], 17 µM; in assay [16] it was 0.9 µM; in assay [17], 0.0028 µM; in [18], 0.01 µM. The “effect on colon CSC proliferation / number versus DMSO controls” value in assay [1] (setting [29]) is on record as “significantly lead to a reduction in colon CSC numbers”.
Regarding `CC(=O)c1c(O)c(C)c(O)c(Cc2c(O)c3c(c(C(=O)/C=C/c4ccccc4)c2O)OC(C)(C)C=C3)c1O` [Rottlerin], the IC50 in assay [19] is 3 to 6 µM. The “effect on colon CSC proliferation / number versus DMSO controls” value in assay [1] (setting [29]) is recorded as “significantly lead to a reduction in colon CSC numbers”.
`Oc1ccc(-c2nc(-c3ccncc3)c(-c3ccc(F)cc3)[nH]2)cc1` [SB 202190]: the concentration for half-maximal inhibition (IC50) in assay [20] is 5.3 µM; in [21], 80 to 100 µM; in assay [22] it was 30 to 42 µM. Further, in assay [1] (setting [29]), the “effect on colon CSC proliferation / number versus DMSO controls” value is reported as “lead to significant proliferation”.
Regarding `Cc1ccc(NC(=O)c2cccc(N(C)C)c2)cc1NC(=O)c1ccc(O)cc1` [ZM 336372], the IC50 in assay [23] and in assay [25] was 2 µM each time. In assay [24], the “inhibition of many other protein kinases” value was “potency compared to B-Raf, but does not inhibit many other”. Besides, the “effect on colon CSC proliferation / number versus DMSO controls” value in assay [1] was “lead to significant proliferation”. The “increased potency on c-Raf compared to B-Raf” value in assay [26] is listed as “ten-fold”.
On to Indirubin-3′-monoxime, for which, in assay [27], the half-inhibitory concentration (IC50) was 0.1 µM.

B1: TRAIL: Tumor necrosis factor-related apoptosis-inducing ligand; recombinant human Killer TRAIL from Alexis (protein, UniProt P50591 1-281, looked up)
Tumor necrosis factor ligand …: MAMMEVQGGPSLGQTCVLIVIFTVLLQSLCVAVTYVYFTNELKQMQDKYSKSGIACFLKEDDSYWDPNDEESMNSPCWQVKWQLRQLVRKMILRTSEETISTVQEKQQNISPLVRERGPQRVAAHITGTRGRSNTLSSPNSKNEKALGRKINSWESSRSGHSFLSNLHLRNGELVIHEKGFYYIYSQTYFRFQEEIKENTKNDKQMVQYIYKYTSYPDPILLMKSARNSCWSKDAEYGLYSIYQGGIFELKENDRIFVSVTNEHLIDMDHEASFFGAFLVG
Turning to B1, in assay [28], the “resistance of colon CSCs to treatment alone” value was “One out of four colon CSCs is resistant”.

The values are drawn from US20090275546A1, “Diagnostic tests and personalized treatment regimes for cancer stem cells” (Istituto Superiore di Sanita, priority 2008, published 2009).
